Data on 26 molecules can be found in patent publication US5391571A, “Cholesterol ester hydrolase inhibitors” (priority 1993, dated 1995).

The target in experiment [1] is T1, cholesterol esterase (EC 3.1.1.13) (Bos taurus, UniProt P30122).
T1 construct: purchased Sigma Chemical Company, St. Louis, Mo., USA C-1892; host or cells: bovine pancreas
Put plainly: in vitro inhibition of cholesteryl ester formation by cholesterol esterase. Particulars: 37° C., cholesterol and oleic acid, cholesterol esterase from bovine pancreas; read-out: IC50 (concentration that inhibits one-half of the ester formation). The format is biochemical, bovine. The procedure:
The ability of the compounds of this invention to inhibit the formation of cholesteryl esters and thereby interfere with and prevent assimilation of cholesterol into the lymphatic system and ultimately the blood stream was established by incubating the compounds at 37° C. with a mixture of cholesterol and oleic acid in the presence of buffered cholesterol esterase [(EC 3.1.1.13) Sigma Chemical Company, St. Louis, Mo., USA, No. C-1892, from bovine pancreas] and measuring the amount of ester formed, according to the procedure of Field, J. of Lipid Research, 25 389 (1984).

A further experiment relates to cholesterol absorption. Put plainly: in vivo cholesterol absorption study, serum radioactivity after oral [4-^14C] cholesterol. Particulars: Rattus norvegicus, 6 h, normal rats, serum radioactivity at six hours, vs control, read-out: Decrease in [^14C] Cholesterol Absorption. On the procedure:
The in vivo cholesterol absorption studies were conducted in normal rats by oral administration of the compound being tested in propylene glycol and olive oil followed by oral administration of [4-^14 C] cholesterol in propylene glycol and olive oil, otherwise following the procedure of Cayen et al., J. Lipid Res. 20 162 (1979). The serum radioactivity was measured at six hours after dosing. The results of this study are reported in the following Table, where available, as percent decrease compared to control and in terms of the effective dose (ED50) inhibiting fifty-percent of the absorption of the control animals.

Molecules are shown by their SMILES.

T1 sequence (P30122 19-597): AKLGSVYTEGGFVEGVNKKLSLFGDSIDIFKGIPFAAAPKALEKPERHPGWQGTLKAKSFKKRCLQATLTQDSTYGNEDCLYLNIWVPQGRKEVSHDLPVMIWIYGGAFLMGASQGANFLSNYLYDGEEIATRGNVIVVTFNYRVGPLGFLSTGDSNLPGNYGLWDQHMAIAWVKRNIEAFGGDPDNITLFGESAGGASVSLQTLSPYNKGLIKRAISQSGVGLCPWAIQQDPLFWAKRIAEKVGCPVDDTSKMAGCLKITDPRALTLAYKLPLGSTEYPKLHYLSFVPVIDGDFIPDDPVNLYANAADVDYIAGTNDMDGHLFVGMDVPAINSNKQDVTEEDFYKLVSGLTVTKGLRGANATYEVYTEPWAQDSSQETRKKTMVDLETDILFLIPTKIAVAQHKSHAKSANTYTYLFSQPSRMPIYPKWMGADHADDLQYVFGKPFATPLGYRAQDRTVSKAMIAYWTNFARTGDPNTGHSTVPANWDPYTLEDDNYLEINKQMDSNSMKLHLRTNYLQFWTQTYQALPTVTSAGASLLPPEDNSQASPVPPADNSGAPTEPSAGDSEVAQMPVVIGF

In the case of `CCCCNC(=O)Oc1ccc(Oc2ccc([N+](=O)[O-])cc2)cc1` [Example 20, Butylcarbamic acid 4-(4-nitrophenoxy)phenyl ester], in experiment [1], the IC50 came to 7.6 µM. In the experiment on cholesterol absorption, the inhibition in vivo at 65 mg/kg stood at 27%.
The like results for `Cc1ccc(Oc2ccc(OC(=O)N3CCC(C)CC3)cc2)cc1` [Example 23, 4-Methyl-1-piperidinecarboxylic acid 4-(4-methylphenoxy)phenyl ester] were, in that order, 0.27 µM and 43%.
For the molecule `CC1CCN(C(=O)Oc2ccc(Oc3ccc(Cl)cc3)cc2)CC1` [Example 25, 4-Methyl-1-piperidinecarboxylic acid 4-(4-chlorophenoxy)phenyl ester], the IC50 in experiment [1] turned out to be 0.17 µM. In the experiment on cholesterol absorption, the inhibition in vivo at 65 mg/kg was determined as 61%.
The like results for `COc1ccc(Oc2ccc(OC(=O)N3CCC(C)CC3)cc2)cc1` [Example 30, 4-Methyl-1-piperidinecarboxylic acid 4-(4-methoxyphenoxy)phenyl ester] were, in that order, 1.2 µM and 83%.
Regarding `CC1(C)CCN(C(=O)Oc2ccc(Oc3ccccc3)cc2)CC1` [Example 38, 4,4-Dimethyl-1piperidinecarboxylic acid 4-phenoxyphenol ester], the IC50 in experiment [1] amounted to 0.23 µM. In the experiment on cholesterol absorption, the inhibition in vivo at 50 mg/kg was determined as 86%.
The like results for `CC1CCCN(C(=O)Oc2ccc(Oc3ccccc3)cc2)C1` (stereo not shown) [Example 39, 3-Methyl-1-piperidinecarboxylic acid 4-phenoxyphenyl ester] were, in that order, 0.88 µM and 73%.
As to `CC1CCN(C(=O)Oc2ccc(Oc3ccccc3)cc2F)CC1` [Example 41, 4-Methyl-1-piperidinecarboxylic acid 2-fluoro-4-phenoxyphenyl ester], the IC50 in experiment [1] amounted to 0.03 µM. In the experiment on cholesterol absorption, the inhibition in vivo at 50 mg/kg was determined as 73%.
For `CCC1CCN(C(=O)Oc2ccc(Oc3ccccc3)cc2)CC1` [Example 42, 4-Ethyl-1-piperidinecarboxylic acid 4-phenoxyphenyl ester], in experiment [1], the IC50 is 0.05 µM. Further, in the experiment with cholesterol absorption, the inhibition in vivo at 50 mg/kg was found to be 81%.
As for `CCOC(=O)C1CCN(C(=O)Oc2ccc(Oc3ccccc3)cc2)CC1` [Example 43, 1,4-Piperidinedicarboxylic acid 4-ethyl-1-(4phenoxyphenyl) diester], the IC50 in experiment [1] came out at 4.5 µM. The inhibition in vivo at 50 mg/kg in the experiment with cholesterol absorption is 60%.
As for `O=C(Oc1ccc(Oc2ccccc2)cc1)N1CCC(O)CC1` [Example 44, 4-Hydroxy1-piperidinecarboxylic acid 4-phenoxyphenyl ester], the IC50 in experiment [1] was determined as 1.9 µM. Also, the inhibition in vivo at 50 mg/kg in the experiment with cholesterol absorption is 49%.
Consider `CCCC1CCN(C(=O)Oc2ccc(Oc3ccccc3)cc2)CC1` [Example 45, 4Propyl-1-piperidinecarboxylic acid 4-phenoxyphenyl ester], for which, in experiment [1], the IC50 amounted to 0.07 µM. In the experiment on cholesterol absorption (10 mg/kg), the inhibition in vivo at 10 mg/kg was 41%.
For the molecule `O=C(O)C1CCN(C(=O)Oc2ccc(Oc3ccccc3)cc2)CC1` [Example 46, 1.4-Piperidinedicarboxylic acid 1-(1-phenoxyphenyl ester)], the IC50 in experiment [1] came to 44 µM. Further, the inhibition in vivo at 100 mg/kg with cholesterol absorption was determined as 55%.
For the molecule `CC1(C)CCCN(C(=O)Oc2ccc(Oc3ccccc3)cc2)C1` [Example 47, 3,3-Dimethyl-1-piperidinecarboxylic acid 4-phenoxyphenyl ester], the IC50 in experiment [1] is 1.6 µM. Also, in the experiment with cholesterol absorption, the inhibition in vivo at 20 mg/kg was determined as 67%.
`CC(=O)OC1CCN(C(=O)Oc2ccc(Oc3ccccc3)cc2)CC1` [Example 48, 4-(Acetyloxy)-1-piperidinecarboxylic acid 4-phenoxyphenyl ester]: the IC50 in experiment [1] is 0.54 µM. The inhibition in vivo at 50 mg/kg in the experiment on cholesterol absorption stood at 41%.
The like results for `COC(=O)c1cc(Oc2ccccc2)ccc1OC(=O)N1CCC(C)CC1` [Example 49, 4-Methyl-1-piperidinecarboxylic acid 2-(methoxycarbonyl)-4-phenoxyphenyl ester] were, in that order, 0.34 µM and 28%.
Turning to `CC(C)C1CCN(C(=O)Oc2ccc(Oc3ccccc3)cc2)CC1` [Example 51, 4-(1-Methylethyl)-1-piperidinecarboxylic acid 4-phenoxyphenyl ester], in experiment [1], the IC50 came out at 0.25 µM. Also, the inhibition in vivo at 20 mg/kg with cholesterol absorption is 66%.
With `O=C(Oc1ccc(Oc2ccccc2)cc1)N1CCC2(CCCC2)CC1` [Example 52, 8-Azaspiro[4,5]decan-8-carboxylic acid 4-phenoxyphenyl ester], the IC50 in experiment [1] turned out to be 0.75 µM. Also, the inhibition in vivo at 50 mg/kg in the experiment with cholesterol absorption was determined as 78%.
As to `CCCCCCCCCCCCOC(=O)C1CCN(C(=O)Oc2ccc(Oc3ccccc3)cc2)CC1` [Example 53, 1,4-Piperidinedicarboxylic acid 4-dodecyl 1-(4-phenoxyphenyl) diester], in experiment [1], the IC50 was over 100 µM. Further, the inhibition in vivo at 100 mg/kg in the experiment on cholesterol absorption stood at 44%.
Regarding `CC1CCN(C(=O)Oc2ccc(Oc3ccccc3)cc2C#N)CC1` [Example 54, 4-Methyl-1-piperidinecarboxylic acid 2-cyano-4-phenoxyphenyl ester], the IC50 in experiment [1] is 0.44 µM. Further, the inhibition in vivo at 50 mg/kg in the experiment with cholesterol absorption is 36%.
For `CC1CCN(C(=O)Oc2ccc(Oc3ccccc3)cc2C(=O)O)CC1` [Example 55] the same measures were 31.3 µM and 16%.
For the molecule `O=C(Oc1ccc(Oc2ccccc2)cc1)N1CCC(CBr)CC1` [Example 57, 4-(Bromomethyl)-1-piperidinecarboxylic acid, 4-phenoxyphenyl ester], the IC50 in experiment [1] came to 0.08 µM. The inhibition in vivo at 50 mg/kg in the experiment with cholesterol absorption was determined as 87%.
Regarding `CCCCCCCCCCCCOC(=O)c1cc(Oc2ccccc2)ccc1OC(=O)N1CCC(C)CC1` [Example 58, 4-Methyl-1-piperidinecarboxylic acid 2-(dodecycloxycarbonyl)-4-phenoxyphenyl ester], the IC50 in experiment [1] turned out to be 0.34 µM. Also, in the experiment with cholesterol absorption, the inhibition in vivo at 50 mg/kg was found to be 37%.
The like results for `CCN(CC)CC1CCN(C(=O)Oc2ccc(Oc3ccccc3)cc2)CC1` [Example 60] were, in that order, over 100 µM and 49%.
As to `CC[N+](CC)(CC)CC1CCN(C(=O)Oc2ccc(Oc3ccccc3)cc2)CC1` [Example 61, Triethyl 1-[(4-phenoxyphenoxy)carbonyl]-4-piperidinemethanaminium iodide], in experiment [1], the IC50 was over 100 µM. Further, the inhibition in vivo at 50 mg/kg with cholesterol absorption stood at 33%.
As for `CC1CCCCN1C(=O)Oc1ccc(Oc2ccccc2)cc1` (stereo not shown) [Example 63, 2-Methyl-1-piperidinecarboxylic acid 4-phenoxyphenyl ester], the IC50 in experiment [1] was over 100 µM. The inhibition in vivo at 50 mg/kg in the experiment on cholesterol absorption came to 68%.
As to `CCCCCCCC/C=C\CCCCCCCCNC(=O)Oc1ccc(Oc2ccccc2)cc1` [Example 67, (Z)-9-Octadecenylcarbamic acid 4-phenoxyphenyl ester], in experiment [1], the IC50 was determined as 626 µM. Besides, in the experiment on cholesterol absorption, the inhibition in vivo at 100 mg/kg was 49%.
